Measured values: patent US7927829B2, “Method for in vitro phosphorylation of trap of Staphylococcus aureus and a method for screening the inhibitor of the trap phosphorylation” (priority 2007, dated 2011)

Target: TRAP protein (Staphylococcus aureus, UniProt Q6GFM2)
Type: biochemical
Set-up: 6xHis (C); made in house; host or cells: Escherichia coli
Details: for in vitro phosphorylation of TRAP protein by using metal ions: 20 μM or 200 μM metal ions, 37° C. 30 minutes, FIG. 2; for metal ion concentration above which TRAP protein is maximally phosphorylated: various ion concentrations, other conditions as Example 3, FIG. 3; for TRAP phosphorylation induced by oxidative and reductive agents: same procedure as Example 3, FIG. 5
Procedure: The TRAP protein obtained in Example 2 was prepared with each tube according to following compositions of Table 2.
The protein sample prepared above was reacted at 37° C. for 30 minutes, then mixed with 2× loading dye 10 l (BioRad), and analyzed by performing SDS-PAGE at 150 V for an hour. Afterward, the resulting gel was dried and exposed onto an X-ray film to measure a degree of phosphorylation. The result is illustrated in FIG. 2. In the upper part of FIG. 2, 20 μM metal ions, Mg, Zn, Cu, Fe, Mn, Ni, Co are used in Lane 1 through Lane 7, respectively. In the lower part of FIG. 2, 200 μM metal ions, Mg, Cu, Zn, Ni, Co, Ca are used in Lane 1 through Lane 7, respectively.
Generally, a protein kinase binds with ATP, hydrolyzes ATP into ADP and attaches a resulting phosphate onto a specific amino acid of the protein to phosphorylate. In this process, Mg^2+ ions play a role of a subsidiary enzyme to stabilize the kinase binding with phosphates of ATP. […] The present inventors have attempted to elucidate why the TRAP protein utilizes the transition metal ions. […] Various oxidative and reductive agents were used to induce a phosphorylation in this Example.
In order to measure the TRAP phosphorylation, a quantitative analysis was performed by using FeSO4, ZnCl2 and CuCl2, in this Example. FeSO4, ZnCl2 and CuCl2, were added to each reaction at various ion concentrations and other conditions of the phosphorylation are the same as that of Example 3. The result is illustrated in FIG. 3.

TRAP protein, sequence (Q6GFM2 whole entry): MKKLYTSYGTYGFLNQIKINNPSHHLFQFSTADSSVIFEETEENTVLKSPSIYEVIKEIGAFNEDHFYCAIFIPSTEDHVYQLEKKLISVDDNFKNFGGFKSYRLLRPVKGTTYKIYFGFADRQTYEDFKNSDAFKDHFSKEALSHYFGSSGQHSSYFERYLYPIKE

SMILES	in vitro phosphorylation of TRAP protein by using metal ions	metal ion concentration above which TRAP protein is maximally phosphorylated [µM]	TRAP phosphorylation induced by oxidative and reductive agents	TRAP phosphorylation inhibited by a reducing agent (summary statement)
[Cl][Cu][Cl] [CuCl2]	in vitro phosphorylated	> 20	–	–
O=S(=O)([O-])[O-].[Fe+2] [FeSO4]	in vitro phosphorylated	> 2	–	–
OO [H2O2, reference compound]	–	–	induced	–
[Cl-].[Cl-].[Mg+2] [Mg^2+, MgCl2]	not phosphorylated	–	–	–
[Cl-].[Cl-].[Zn+2] [ZnCl2]	in vitro phosphorylated	> 100	–	–
O=C1O[C@H]([C@@H](O)CO)C(O)=C1O [ascorbic acid, reference compound]	–	–	not	inhibited
